The series can be described thus: Stability of pure vitamin C and YHC-Vc in aqueous solution (color, pH, vitamin C content) at 50° C. in airtight container for four weeks. Type of series: physicochemical.

Each structure is given as a SMILES string.

As for `O=C1O[C@H]([C@@H](O)CO)C(O)=C1O` [vitamin C, ascorbic acid], the change of color result (50° C., airtight glass container, four weeks, 3.0 wt % vitamin C solution or 10.0 wt % composite dispersion) was “abrupt change of color in the order from clear (colorless) to yellow, orange, and then red”. For the same compound, the pH (In 4 weeks, 50° C., airtight container) is 2.52. This compound had a pH condition maintained (at 50° C. for 4 weeks) of about 2. Moreover, the “remaining amount of vitamin C” value (in four weeks at 50° C. in airtight container) was “about 51%”.

For the origin of these results see US10835461B2, “Bio-active material composite, preparing method thereof and cosmetic composition containing the same” (priority 2015, dated 2020).
